For `COc1ccccc1Nc1nc(C)c(C(=O)NCc2ccccc2)o1` [Compound 221, 2-(2-methoxy-phenylamino)-4-methyl-oxazole-5-carboxylic acid benzylamide], the melting point (in general, the temperature, or range, at which the solid turns liquid) was 125.9 to 130.2 °C.
The value for `Cc1nc(Oc2ccccc2)sc1C(=O)N[C@H]1CCC[C@@H]1OCc1ccccc1` [Compound 80, 4-methyl-2-phenoxy-thiazole-5-carboxylicacid ((1S,2S)-2-benzyloxycyclopent-1-yl)amide] was 93.4 to 95.8 °C; that for `COc1ccccc1N(C)c1nc(C)c(C(=O)N[C@H](CO)c2ccccc2)s1` [Compound 150, 2-[(2-methoxy-phenyl)-methyl-amino]-4-methyl-thiazole-5-carboxylic acid ((S)-2-hydroxy-1-phenyl-ethyl)-amide] was 119.4 °C.
The value for `COc1ccccc1Nc1nc(C)c(C(=O)NCc2cccc(-c3ccccc3)c2)s1` [Compound 144, 2-(2-methoxy-phenylamino)-4-methyl-thiazole-5-carboxylic acid (biphenyl-3-ylmethyl)-amide] was 126.6 to 128.3 °C.
`COc1ccccc1Nc1nc(C)c(C(=O)NCc2cccc(Br)c2)s1` [Compound 147, 2-(2-methoxy-phenylamino)-4-methyl-thiazole-5-carboxylic acid 3-bromo-benzylamide] displayed a melting point of 161.3 to 164.1 °C.
Take `COc1ccccc1Nc1nc(C)c(C(=O)N2CC=C(c3ccc(F)cc3)CC2)s1` [Compound 163, [4-(4-fluoro-phenyl)-3,6-dihydro-2H-pyridin-1-yl]-[2-(2-methoxy-phenylamino)-4-methyl-thiazol-5-yl]-methanone]: the melting point lay within 144.4 to 149.2 °C.
The value for `COc1ccccc1Nc1nc(C)c(C(=O)NC(C)c2ccccc2)s1` (centres unmarked) [Compound 130, 2-(2-methoxy-phenylamino)-4-methyl-thiazole-5-carboxylic acid (1-phenyl-ethyl)-amide] was 60.3 to 62.4 °C; that for `COc1ccccc1Nc1nc(C)c(C(=O)Nc2ccc(Cn3cccn3)cc2)s1` [Compound 166, 2-(2-methoxy-phenylamino)-4-methyl-thiazole-5-carboxylic acid (4-pyrazol-1-ylmethyl-phenyl)-amide] was 211.3 to 214.4 °C; that for `COc1ccccc1Nc1nc(C)c(C(=O)N[C@@H](C(=O)O)c2ccccc2)s1` [Compound 212, (R)-{[2-(2-methoxy-phenylamino)-4-methyl-thiazole-5-carbonyl]-amino}-phenyl-aceticacid] was 258.6 to 262.9 °C.
The figure for `COc1ccccc1Nc1nc(C)c(C(=O)N(Cc2ccccc2)c2ccccc2)s1` [Compound 216, 2-(2-methoxy-phenylamino)-4-methyl-thiazole-5-carboxylic acid benzyl-phenyl-amide] is 167.2 to 170 °C; for `COc1ccccc1Nc1ncc(C(=O)NCc2ccccc2)[nH]1` [Compound 224, 2-(2-methoxy-phenylamino)-3H-imidazole-4-carboxylic acid benzylamide] it is 212.5 to 213.9 °C; for `COc1ccccc1Nc1nc(C)c(C(=O)NCC2COc3ccccc3O2)s1` (centres unmarked) [Compound 217, 2-(2-methoxy-phenylamino)-4-methyl-thiazole-5-carboxylic acid (2,3-dihydro-benzo[1,4]dioxin-2-ylmethyl) amide] it is 138.3 to 158.2 °C.
Take `COc1ccccc1Nc1nc(C)c(C(=O)NCc2cccc(OC(F)(F)F)c2)s1` [Compound 158, 2-(2-methoxy-phenylamino)-4-methyl-thiazole-5-carboxylic acid 3-trifluoromethoxy-benzylamide]: the melting point lay in the range of 96.1 to 100.3 °C.
The value for `COc1ccccc1Nc1nc(C)c(C(=O)NCc2ccccc2Br)s1` [Compound 146, 2-(2-methoxy-phenylamino)-4-methyl-thiazole-5-carboxylic acid 2-bromo-benzylamide] was 159.6 to 164 °C; that for `COC(=O)[C@@H](NC(=O)c1sc(Nc2ccccc2OC)nc1C)c1ccccc1` [Compound 152, (S)-{[2-(2-methoxy-phenylamino)-4-methyl-thiazole-5-carbonyl]-amino}-phenyl-aceticacid methyl ester] was 133.5 to 135.7 °C; that for `CC[C@@H](NC(=O)c1sc(Nc2ccccc2OC)nc1C)c1ccccc1` [Compound 131, 2-(2-methoxy-phenylamino)-4-methyl-thiazole-5-carboxylic acid ((R)-1-phenyl-propyl)-amide] was 57.7 to 59.6 °C.
The compound `COc1ccccc1Nc1nc(C)c(C(=O)NCc2ccccc2OC(F)(F)F)s1` [Compound 157, 2-(2-methoxy-phenylamino)-4-methyl-thiazole-5-carboxylic acid 2-trifluoromethoxy-benzylamide] had a melting point of 76.1 to 80.2 °C.
`COc1ccccc1Nc1nc(C)c(C(=O)N2CCC(Cc3ccccc3)CC2)s1` [Compound 174, (4-benzyl-piperidin-1-yl)-[2-(2-methoxy-phenylamino)-4-methyl-thiazol-5-yl]-methanone] showed a melting point of 166.8 to 169.2 °C.
For the compound `Cc1nc(Nc2ccc(N3CCOCC3)cc2)sc1C(=O)N[C@H]1CCC[C@@H]1OCc1ccccc1` [Compound 92, 4-methyl-2-(4-morpholin-4-yl-phenylamino)-thiazole-5-carboxylic acid ((1S,2S)-2-benzyloxycyclopent-1-yl) amide], the melting point is 192.5 to 194.9 °C.
Consider `COc1ccccc1Nc1nc(C)c(C(=O)NCc2ccc(C(=O)N(C)C)cc2)s1` [Compound 137, 2-(2-methoxy-phenylamino)-4-methyl-thiazole-5-carboxylic acid 4-dimethylcarbamoyl-benzylamide], for which the melting point is 219.1 to 226.7 °C.
The figure for `COc1ccccc1Nc1nc(C)c(C(=O)NCc2c(C)cc(Cl)cc2Cl)s1` [Compound 220, 2-(2-methoxy-phenylamino)-4-methyl-thiazole-5-carboxylic acid 2,4-dichloro-6-methyl-benzylamide] is 142 to 147.7 °C.
The figure for `COc1cccc(Nc2nc(C)c(C(=O)N[C@H]3CCC[C@@H]3OCc3ccccc3)s2)c1` [Compound 133, 2-(3-methoxy-phenylamino)-4-methyl-thiazole-5-carboxylic acid ((1S,2S)-2-benzyloxycyclopent-1-yl) amide] is 152.8 to 155.9 °C.
The value for `COc1ccccc1Nc1nc(C)c(C(=O)NC2CCN(Cc3ccccc3)C2)s1` (centres unmarked) [Compound 215, 2-(2-methoxy-phenylamino)-4-methyl-thiazole-5-carboxylic acid (1-benzyl-pyrrolidin-3-yl) amide] was 112.6 to 121.6 °C.
For the compound `COc1ccc(CNC(=O)c2sc(Nc3ccccc3OC)nc2C)cc1` [Compound 218, 2-(2-methoxy-phenylamino)-4-methyl-thiazole-5-carboxylic acid 4-methoxybenzylamide], the melting point was in the range of 143.9 to 144.8 °C.
The figure for `COc1ccccc1Nc1nc(C)c(C(=O)N2CCC(c3ccc(C)cc3)CC2)s1` [Compound 168, [2-(2-methoxy-phenylamino)-4-methyl-thiazol-5-yl]-[4-p-tolyl-piperidin-1-yl]-methanone] is 187.7 to 191.5 °C; for `Cc1nc(Nc2ccncc2)sc1C(=O)N[C@H]1CCC[C@@H]1OCc1ccccc1` [Compound 153, 4-methyl-2-(pyridin-4-ylamino)-thiazole-5-carboxylic acid ((1S,2S)-2-benzyloxycyclopent-1-yl) amide] it is 78.1 to 81.7 °C.
`COc1ccccc1Nc1nc(C)c(C(=O)NC2CCc3ccccc32)s1` (centres unmarked) [Compound 164, 2-(2-methoxy-phenylamino)-4-methyl-thiazole-5-carboxylic acid indan-1-ylamide] gave a melting point of 146.2 to 148 °C.
`COc1ccccc1N(C(C)=O)c1nc(C)c(C(=O)N[C@H]2CCC[C@@H]2OCc2ccccc2)s1` [Compound 129, 2-[acetyl-(2-methoxy-phenyl)-amino]-4-methyl-thiazole-5-carboxylic acid ((1S,2S)-2-benzyloxycyclopent-1-yl) amide] had a melting point of 145.8 to 149 °C.
Compound `COc1ccccc1Nc1nc(C)c(C(=O)NCc2ccccc2-c2ccccc2)s1` [Compound 143, 2-(2-methoxy-phenylamino)-4-methyl-thiazole-5-carboxylic acid (biphenyl-2-ylmethyl)-amide] returned a melting point of 128.4 to 132 °C.
The figure for `COc1ccccc1Nc1nc(C)c(C(=O)NCc2ccc(-c3ccccc3)cc2)s1` [Compound 145, 2-(2-methoxy-phenylamino)-4-methyl-thiazole-5-carboxylic acid (biphenyl-4-ylmethyl)-amide] is 189.6 to 191.2 °C; for `COc1ccccc1Nc1nc(C)c(C(=O)NCc2ccc3c(c2)OCO3)s1` [Compound 162, 2-(2-methoxy-phenylamino)-4-methyl-thiazole-5-carboxylic acid (benzo[1,3]dioxol-5-ylmethyl)-amide] it is 166 to 167.4 °C; for `COc1ccccc1Nc1nc(C)c(C(=O)N2CCC(C(=O)c3ccc(F)cc3)CC2)s1` [Compound 175, [4-(4-fluoro-benzoyl)-piperidin-1-yl]-[2-(2-methoxy-phenylamino)-4-methyl-thiazol-5-yl]-methanone] it is 92.6 to 99.6 °C.
The compound `CC[C@H](NC(=O)c1sc(Nc2ccccc2OC)nc1C)c1ccccc1` [Compound 132, 2-(2-methoxy-phenylamino)-4-methyl-thiazole-5-carboxylic acid ((S)-1-phenyl-propyl)-amide] displayed a melting point of 66.5 to 70.4 °C.
The figure for `COC(=O)[C@H](NC(=O)c1sc(Nc2ccccc2OC)nc1C)c1ccccc1` [Compound 151, (R)-{[2-(2-methoxy-phenylamino)-4-methyl-thiazole-5-carbonyl]-amino}-phenyl-aceticacid methyl ester] is 131.4 to 137.9 °C; for `COc1ccccc1Nc1nc(C)c(C(=O)NCc2ccc(F)c(C(F)(F)F)c2)o1` [Compound 223, 2-(2-methoxy-phenylamino)-4-methyl-oxazole-5-carboxylic acid 4-fluoro-3-trifluoromethyl-benzylamide] it is 71.6 to 84.3 °C.
